Reference: ChEMBL document CHEMBL5505958, “Optimization of sequence and chiral content enhances therapeutic potential of tilapia piscidin peptides” (Eur J Med Chem, 2024)
Converted amounts (≈) assume the structure as drawn. The source made the active and inactive calls. The calls are words filed in the database; no cut-off is given here.

Columns and labels:
Staphylococcus aureus = assay: Antibacterial activity against Staphylococcus aureus 10780 assessed as inhibition of bacterial growth incubated for 16 to 20 hrs; format: functional; conditions: time 16-20 hrs
Klebsiella pneumoniae [1] = assay: Antibacterial activity against Klebsiella pneumoniae BAA 2473 assessed as bacterial eradication measured at 10 hrs; format: functional, organism-based
Klebsiella pneumoniae [2] = assay: Antibacterial activity against Klebsiella pneumoniae TL 297 assessed as inhibition of bacterial growth incubated for 16 to 20 hrs; format: functional; conditions: time 16-20 hrs
Klebsiella pneumoniae [3] = assay: Antibacterial activity against Klebsiella pneumoniae BAA 2473 assessed as ciprofloxacin MIC; format: functional
Klebsiella pneumoniae [4] = assay: Antimicrobial activity against drug-resistant Klebsiella pneumoniae BAA 2473 infected in C57BL/6 mouse assessed as fold reduction in bacterial load at 5 mg/kg, po administered for 2 hrs and measured at 24 hrs; format: functional
Lipopolysaccharide (LPS) = assay: Displacement of BODIPY-TR-cadaverine from Klebsiella pneumoniae BAA 2473 lipopolysaccharide (LPS) assessed as increase in fluorescence intensity at 1.56 uM by fluorescence spectrophotometric analysis; format: subcellular
Pseudomonas aeruginosa [5] = assay: Bactericidal activity against Pseudomonas aeruginosa 19660 assessed as inhibition of bacterial growth incubated for 16 to 20 hrs; format: functional; conditions: time 16-20 hrs
Klebsiella pneumoniae [6] = assay: Antimicrobial activity against drug-resistant Klebsiella pneumoniae BAA 2473 infected in C57BL/6 mouse assessed as reduction in bacterial load at 5 mg/kg, po administered for 2 hrs and measured at 24 hrs; format: functional, organism-based; conditions: time 26.0 hrs
Klebsiella pneumoniae [7] = assay: Additive antibacterial activity against Klebsiella pneumoniae BAA 2473 assessed as fractional inhibitory concentration index in presence of meropenem by checkerboard assay; format: functional
Klebsiella pneumoniae [8] = assay: Synergistic antibacterial activity against Klebsiella pneumoniae BAA 2473 assessed as fractional inhibitory concentration index in presence of doxycycline by checkerboard assay; format: functional
Cell membrane = assay: Induction of outer cell membrane permeabilization in Klebsiella pneumoniae BAA 2473 assessed as increase in fluorescence intensity by PI staining based analysis; format: cell membranes
Klebsiella pneumoniae [9] = assay: Antibacterial activity against Klebsiella pneumoniae BAA 2473 assessed as inhibition of bacterial growth in presence of doxycycline; format: functional
Klebsiella pneumoniae [10] = assay: Bactericidal activity against Klebsiella pneumoniae TL 297 assessed as inhibition of bacterial growth incubated for 16 to 20 hrs; format: functional; conditions: time 16-20 hrs
Pseudomonas aeruginosa [11] = assay: Antibacterial activity against Pseudomonas aeruginosa 19660 assessed as inhibition of bacterial growth incubated for 16 to 20 hrs; format: functional; conditions: time 16-20 hrs
Klebsiella pneumoniae [12] = assay: Antibacterial activity against Klebsiella pneumoniae BAA 2473 assessed as inhibition of bacterial growth in presence of ciprofloxacin; format: functional
Klebsiella pneumoniae [13] = assay: Antibacterial activity against Klebsiella pneumoniae BAA 2473 assessed as doxycycline MIC; format: functional
[14] = Toxicity in C57BL/6 mouse assessed as change in GPT level in liver at 15 mg/kg, iv measured for 7 days; format: organism-based; conditions: in vivo, 168 h, time 7 day
Klebsiella pneumoniae [15] = assay: Antibacterial activity against Klebsiella pneumoniae BAA 2473 assessed as inhibition of bacterial growth in presence of meropenem; format: functional
Erythrocyte = assay: Hemolytic activity in human Red blood cells assessed as hemolysis at 3.13 uM incubated for 1 hrs; format: toxicity, cell-based
Klebsiella pneumoniae [16] = assay: Antibacterial activity against Klebsiella pneumoniae BAA 2473 assessed as bacterial eradication measured at 2 hrs; format: functional
[17] = Toxicity in C57BL/6 mouse assessed as effect on BUN level upto 10 mg/kg, iv measured for 7 days; format: organism-based; conditions: in vivo, 168 h, time 7 day
[18] = Toxicity in C57BL/6 mouse assessed as mortality at 20 mg/kg, iv measured for 2 days; format: organism-based; conditions: in vivo, time 2 day
[19] = Toxicity in C57BL/6 mouse assessed as increase in creatinine level upto 12.5 mg/kg, iv measured for 7 days; format: organism-based; conditions: in vivo, 168 h, time 7 day
[20] = Toxicity in C57BL/6 mouse assessed as mortality at 5 to 10 mg/kg, iv measured for 7 days; format: organism-based; conditions: in vivo, 168 h, dose 5-10 mg/kg, time 7 day
[21] = Toxicity in C57BL/6 mouse assessed as effect on GOT level in liver upto 7.5 mg/kg, iv measured for 7 days; format: organism-based; conditions: in vivo, 168 h, time 7 day
[22] = Toxicity in C57BL/6 mouse assessed as change in body weight at 15 mg/kg, iv measured for 7 days; format: organism-based; conditions: in vivo, 168 h, time 7 day
[23] = Toxicity in C57BL/6 mouse assessed as survival rate at 12.5 to 15 mg/kg, iv measured for 7 days; format: organism-based; conditions: in vivo, dose 12.5-15 mg/kg, time 7 day

Row | Compound | MIC (Staphylococcus aureus) | Activity (Klebsiella pneumoniae [1]) | MIC (Klebsiella pneumoniae [2]) | MIC (Klebsiella pneumoniae [3]) | Activity (Lipopolysaccharide (LPS)) | MBC (Pseudomonas aeruginosa [5]) | Activity (Klebsiella pneumoniae [6]) | fractional inhibitory concentration index (FICI) (Klebsiella pneumoniae [7]) | fractional inhibitory concentration index (FICI) (Klebsiella pneumoniae [8]) | Activity (Cell membrane) | MIC (Klebsiella pneumoniae [9]) | MBC (Klebsiella pneumoniae [10]) | MIC (Pseudomonas aeruginosa [11]) | MIC (Klebsiella pneumoniae [12]) | MIC (Klebsiella pneumoniae [13]) | MIC (Klebsiella pneumoniae [15]) | further results
1 | CC(C)C[C@H](NC(=O)[C@@H](C)NC(=O)[C@@H](CCCCN)NC(=O)[C@H](CC(C)C)NC(=O)[C@@H](CC(C)C)NC(=O)[C@@H](CCCCN)NC(=O)[C@H](CCCCN)NC(=O)[C@@H](CC(C)C)NC(=O)[C@H](N)Cc1ccccc1)C(=O)N[C@H](Cc1ccccc1)C(=O)N[C@H](CO)C(=O)N[C@@H](C)C(=O)N1CCC[C@@H]1C(=O)N[C@H](CCCCN)C(=O)N[C@@H](C)C(=O)N[C@H](CC(C)C)C(=O)N[C@H](CCCCN)C(=O)N[C@@H](CCCNC(=N)N)C(=O)N[C@H](CC(C)C)C(=O)N[C@H](CC(C)C)C(=O)N[C@@H](CCCNC(=N)N)C(=O)N[C@H](CCCNC(=N)N)C(=O)N[C@H](CCCNC(=N)N)C(=O)N[C@@H](CCCNC(=N)N)C(=O)N[C@@H](CCCNC(=N)N)C(=O)O | 12.5 µM (≈ 38.5 µg/mL) | Active | 6.25 µM (≈ 19.2 µg/mL) | 50 µM | Active | 3.13 µM (≈ 9.64 µg/mL) | Active | 1.003 | 0.5 | Active | 0.39 µM | 6.25 µM (≈ 19.2 µg/mL) | 3.13 µM (≈ 9.64 µg/mL) | 1.56 µM | 1.56 µM | 0.78 µM | fold change (FC) (Klebsiella pneumoniae [4]): ~10; Activity [14]: Non-Toxic
2 | H-FIHHIIGGLFSAGKAIHRLIRRRRR-OH | 0.78 µM | – | – | – | – | – | – | – | – | – | – | – | – | – | – | – | Activity (Erythrocyte): Non-Toxic; Activity (Klebsiella pneumoniae [16]): 100%
3 | CC(C)C[C@H](NC(=O)[C@H](CCCCN)NC(=O)[C@@H](CCCCN)NC(=O)[C@H](CC(C)C)NC(=O)[C@@H](N)Cc1ccccc1)C(=O)N[C@H](CC(C)C)C(=O)N[C@@H](CCCCN)C(=O)N[C@@H](C)C(=O)N[C@H](CC(C)C)C(=O)N[C@@H](Cc1ccccc1)C(=O)N[C@@H](CO)C(=O)N[C@H](C)C(=O)N1CCC[C@H]1C(=O)N[C@@H](CCCCN)C(=O)N[C@H](C)C(=O)N[C@@H](CC(C)C)C(=O)N[C@@H](CCCCN)C(=O)N[C@H](CCCNC(=N)N)C(=O)N[C@@H](CC(C)C)C(=O)N[C@@H](CC(C)C)C(=O)N[C@H](CCCNC(=N)N)C(=O)N[C@@H](CCCNC(=N)N)C(=O)N[C@@H](CCCNC(=N)N)C(=O)N[C@H](CCCNC(=N)N)C(=O)N[C@@H](CCCNC(=N)N)C(=O)O | – | Active | 12.5 µM (≈ 38.5 µg/mL) | 0.195 µM | Active | 3.13 µM (≈ 9.64 µg/mL) | inactive | 1 | 0.375 | Active | 0.39 µM | 6.25 µM (≈ 19.2 µg/mL) | 3.13 µM (≈ 9.64 µg/mL) | 0.097 µM | 6.25 µM | 0.78 µM | Activity [17]: Non-Toxic; mortality at 48 h [18]: 100%; Activity [19]: Non-Toxic; Activity [20]: Non-Toxic; Activity [21]: Non-Toxic; Activity [22]: Non-Toxic; survival at 168 h [23]: 80%
